In patent US4874751A, “Antibacterial treatment” (priority 1985, dated 1989):

Cc1cn([C@H]2C[C@H](N=[N+]=[N-])[C@@H](CO)O2)c(=O)[nH]c1=O
LD50 (LD50 in mice): greater than 750 mg/kg
LD50 (LD50 in rats): greater than 750 mg/kg
